Test results reported in patent US5766620A, “Buccal delivery of glucagon-like insulinotropic peptides” (TheraTech, Inc., priority 1995, dated 1998).
Where two headings read alike, the source gives them in different places.

Legend:
[1] = Published subcutaneous administration of GLP-1 to fasting subjects (Nauck, FIG. 8); assay type: in vivo, human
Excerpt: A study by M. A. Nauck of subcutaneous administration of GLP-1 to fasting subjects illustrates changes in the pharmocokinetics with dose (FIG. 8). This could be due to changes in bioavailability with dose, changes in clearance with dose, or a combination of both effects.

[2] = intravenous infusion, fasting individuals, published data; cited from earlier work
blood glucose = assay: Blood glucose after buccal bilayer tablet, double-blind placebo-controlled crossover; settings: 400 μg buccal bilayer tablet, fasting healthy volunteers
Excerpt: This example describes a double-blind, placebo-controlled, crossover comparison with random assignment to treatment sequence. […] Inclusion criteria for the volunteers were normal glucose tolerance, weight within 22<BMI<26, informed consent to participate in the study, and age between 20 and 60 years. […]
Subject numbers were allotted to the subjects in the order in which they were enrolled in the study. The number allotted to each subject determined the treatment sequence received. […]
(§1) Subjects were instructed to fast the night before a treatment. […] Standard safety variables were determined under fasting conditions before each experiment. Blood glucose was monitored frequently and glucose infusion was available in case of hypoglycemia (<2.5 mmol/L). […]
(§2) Blood samples were taken for pharmacokinetic analysis 10 minutes before application of the drug, and at 5, 10, 15, 20, 25, 30, 40, 50, 60, 75, 90, 120, 150, 180, 210, 240, and 270 minutes and 6 and 8 hours after application of the drug. […] The peptide content of bilayer tablet samples was also analyzed by HPLC. […]

clinical = assay: clinical
Excerpt: This example describes a double-blind, placebo-controlled, crossover comparison with random assignment to treatment sequence. […] Inclusion criteria for the volunteers were normal glucose tolerance, weight within 22<BMI<26, informed consent to participate in the study, and age between 20 and 60 years. Exclusion criteria were impaired glucose tolerance (2-hour glucose tolerance test; OGTT), gastrointestinal symptoms, ongoing medication or illness, acute infection, abnormal laboratory variables (hemoglobin, hematocrit, leucocytes, creatinine, bilirubin, calcium, potassium, sodium, alkaline phosphatase, gamma-GT, SGOT, SGPT, cholesterol, and triglycerides), and blood pressure greater than 185 mmHg systolic and/or 90 mmHg diastolic.
Subject numbers were allotted to the subjects in the order in which they were enrolled in the study. The number allotted to each subject determined the treatment sequence received. Subjects receiving treatment sequence 1 were treated with drug followed by placebo, and subjects receiving treatment sequence 2 were treated with placebo followed by drug.
as §1, with “treatment. At the clinic, the subjects were given either a drug-containing bilayer tablet or placebo.” for “treatment.”
as §2
The data summarized in FIG. 7 were analyzed by AUC to provide an estimate of relative bioavailability by buccal administration as compared to subcutaneous administration.

[3] = after administration, 400 μg buccal bilayer tablet

For “GLP-1: GLP-1 given intravenously (7-37 and 7-36 amide) or subcutaneously to fasting subjects in published studies used for comparison”, the “bioavailability by subcutaneous administration relative to intravenous administration” value ([1]; subcutaneous) is given as 38%, the clearance ([1]; subcutaneous administration, regression analysis of all results) is given as “about 40 ml/min/kg” and the clearance [2] is given as about 15 mL/min/kg.
In the case of `CC[C@H](C)[C@H](NC(=O)[C@H](Cc1ccccc1)NC(=O)[C@H](CCC(=O)O)NC(=O)[C@H](CCCCN)NC(=O)[C@H](C)NC(=O)[C@H](C)NC(=O)[C@H](CCC(N)=O)NC(=O)CNC(=O)[C@H](CCC(=O)O)NC(=O)[C@H](CC(C)C)NC(=O)[C@H](Cc1ccc(O)cc1)NC(=O)[C@H](CO)NC(=O)[C@H](CO)NC(=O)[C@@H](NC(=O)[C@H](CC(=O)O)NC(=O)[C@H](CO)NC(=O)[C@@H](NC(=O)[C@H](Cc1ccccc1)NC(=O)[C@@H](NC(=O)CNC(=O)[C@H](CCC(=O)O)NC(=O)[C@H](C)NC(=O)[C@@H](N)Cc1c[nH]cn1)[C@@H](C)O)[C@@H](C)O)C(C)C)C(=O)N[C@@H](C)C(=O)N[C@@H](Cc1c[nH]c2ccccc12)C(=O)N[C@@H](CC(C)C)C(=O)N[C@H](C(=O)N[C@@H](CCCCN)C(=O)NCC(=O)N[C@@H](CCCNC(=N)N)C(N)=O)C(C)C` [GLP-1(7-36)amide], the hypoglycemia (blood glucose) is reported as “does not result in hypoglycemia”, the “time of onset of sharp rise of plasma GLP-1(7-36)amide level” value (clinical; [3]) is reported as at most 5 min and the “time until which elevated GLP-1(7-36)amide levels remain in the blood” value (clinical; [3]) is reported as “about 150 minutes”. The F rel (clinical; human, plasma, 400 ug) was 27%.
